Source: ChEMBL document CHEMBL4706474, “Tetrahydro-2-naphthyl and 2-Indanyl Triazolopyrimidines Targeting Plasmodium falciparum Dihydroorotate Dehydrogenase Display Potent and Selective Antimalarial Activity” (J Med Chem, 2016)
pEC50, pIC50: −log10 of the molar value. Converted amounts (≈) assume the structure as drawn.

How the values were obtained:
[1] = Inhibition of N-terminal His6-tagged Plasmodium falciparum DHODH expressed in Escherichia coli BL21 using L-DHO as substrate and CoQ as co-substrate by DCIP dye based spectrophotometric assay
[2] = Inhibition of N-terminal His6-tagged Plasmodium vivax DHODH expressed in Escherichia coli BL21 using L-DHO as substrate and CoQ as co-substrate by DCIP dye based spectrophotometric assay
[3] = tested on: Plasmodium falciparum; experiment: Antiplasmodial activity against Plasmodium falciparum 3D7 infected in RBC assessed as reduction in parasitemia incubated for 72 hrs by SYBR green dye-based assay; format: functional, organism-based; conditions: rbc
[4] = Inhibition of N-terminal His6-tagged dog DHODH expressed in Escherichia coli BL21 using L-DHO as substrate and CoQ as co-substrate by DCIP dye based spectrophotometric assay; parameters: species or system Canis lupus familiaris
[5] = Lipophilicity, logD of the compound at pH 7.4; format: physicochemical; conditions: buffer
[6] = Kinetic solubility of compound in phosphate buffer at pH 6.5 measured after 30 mins by HPLC-UV based analysis; format: physicochemical; conditions: phosphate buffer, pH 6.5, read-out: Kinetic_solubility
[7] = Protein binding in human plasma assessed as bound fraction by LC-MS analysis based ultracentrifugation assay; format: ADME, cell-free; conditions: read-out: PPB (converted)
[8] = Protein binding in rat plasma assessed as bound fraction by LC-MS analysis based ultracentrifugation assay; format: ADME, cell-free; conditions: read-out: PPB (converted)
[9] = Intrinsic clearance in rat liver microsomes assessed per mg protein at 1 uM by LC-MS analysis; format: ADME, Microsome; conditions: microsomes, 1 µM
[10] = Intrinsic clearance in mouse liver microsomes at 1 uM by LC-MS analysis; format: ADME, Microsome
[11] = Solubility of compound in 0.1 N HCl measured after 5 to 6 hrs by HPLC-UV based analysis; format: physicochemical; conditions: buffer; time 5-6 hrs
[12] = Solubility of compound in FeSSIF at pH 5 measured after 5 to 6 hrs by HPLC-UV based analysis; format: physicochemical; conditions: simulated gi fluid, time 5-6 hrs
[13] = Tmax in Swiss mouse at 20 mg/kg, po administered as single dose via gavage measured over 24 hrs by LC-MS analysis; format: ADME, organism-based; conditions: in vivo
[14] = Apparent half-life in Swiss mouse at 20 mg/kg, po administered as single dose via gavage measured over 24 hrs by LC-MS analysis; format: ADME, organism-based; conditions: in vivo
[15] = Cmax in Swiss mouse at 20 mg/kg, po administered as single dose via gavage measured over 24 hrs by LC-MS analysis; format: ADME, organism-based; parameters: route oral, dose 20 mg/kg, time >24; conditions: in vivo
[16] = AUC (0 to infinity) in Swiss mouse at 20 mg/kg, po administered as single dose via gavage measured over 24 hrs by LC-MS analysis; format: ADME, organism-based; parameters: route oral, dose 20 mg/kg, time >24; conditions: in vivo
[17] = Unbound Cmax in Swiss mouse at 20 mg/kg, po administered as single dose via gavage measured over 24 hrs by LC-MS analysis; format: ADME, organism-based; conditions: in vivo
[18] = Unbound AUC (0 to infinity) in Swiss mouse at 20 mg/kg, po administered as single dose via gavage measured over 24 hrs by LC-MS analysis; format: ADME, organism-based; conditions: in vivo
[19] = Elimination half-life in Swiss mouse at 20 mg/kg, po administered as single dose via gavage measured over 24 hrs by LC-MS analysis; format: ADME, organism-based; conditions: in vivo, read-out: beta t1/2 (converted)
[20] = Apparent half-life in Sprague-Dawley rat at […], iv administered as infusion for 10 mins by LC-MS analysis; format: ADME, organism-based; conditions: in vivo, dose 1.1 mg/kg, read-out: t1/2(app) (converted)
[21] = AUC (0 to infinity) in Sprague-Dawley rat at […], iv administered as infusion for 10 mins by LC-MS analysis; format: ADME, organism-based; parameters: route intravenous, dose 1.1 mg/kg, time 10 min; conditions: in vivo
[22] = Unbound clearance in Sprague-Dawley rat at […], iv administered as infusion for 10 mins by LC-MS analysis; format: ADME, organism-based; conditions: in vivo, dose 1.1 mg/kg
[23] = Volume of distribution at steady state in Sprague-Dawley rat at […], iv administered as infusion for 10 mins by LC-MS analysis; format: ADME, organism-based; conditions: in vivo, dose 1.1 mg/kg
[24] = Unbound volume of distribution at steady state in Sprague-Dawley rat at […], iv administered as infusion for 10 mins by LC-MS analysis; format: ADME, organism-based; conditions: in vivo, dose 1.1 mg/kg
[25] = Cmax in Sprague-Dawley rat at 18.3 mg/kg, po measured over 24 hrs by LC-MS analysis; format: ADME, organism-based; parameters: route oral, dose 18.3 mg/kg, time >24; conditions: in vivo
[26] = Unbound Cmax in Sprague-Dawley rat at 18.3 mg/kg, po measured over 24 hrs by LC-MS analysis; format: ADME, organism-based; conditions: in vivo
[27] = AUC (0 to infinity) in Sprague-Dawley rat at 18.3 mg/kg, po measured over 24 hrs by LC-MS analysis; format: ADME, organism-based; parameters: route oral, dose 18.3 mg/kg, time >24; conditions: in vivo
[28] = Unbound AUC (0 to infinity) in Sprague-Dawley rat at 18.3 mg/kg, po measured over 24 hrs by LC-MS analysis; format: ADME, organism-based; conditions: in vivo
[29] = Oral bioavailability in Sprague-Dawley rat at 18.3 mg/kg measured over 24 hrs by LC-MS analysis; format: ADME, organism-based; conditions: in vivo
[30] = Unbound AUC (0 to infinity) in Sprague-Dawley rat at […], iv by LC-MS analysis; format: ADME, organism-based; conditions: in vivo, dose 1.1 mg/kg
[31] = Inhibition of yeast DHODH expressed in Plasmodium falciparum; parameters: species or system Saccharomyces cerevisiae
[32] = Protein binding in Swiss mouse plasma at 20 mg/kg, po administered as single dose via gavage measured over 24 hrs by LC-MS analysis; format: ADME, organism-based; conditions: read-out: PPB (converted)
[33] = Protein binding in Sprague-Dawley rat plasma at […], iv administered as infusion for 10 mins by LC-MS analysis; format: ADME, organism-based; conditions: dose 1.1 mg/kg, read-out: PPB (converted)
[34] = in vivo; conditions: Sprague-Dawley, rat, po, 18.3 mg/kg
[35] = Solubility of compound in FaSSIF at pH 6.5 measured after 5 to 6 hrs by HPLC-UV based analysis
[36] = Cmax in Sprague-Dawley rat at 24.4 mg/kg, po measured over 24 hrs by LC-MS analysis; format: ADME, organism-based; parameters: route oral, dose 24.4 mg/kg, time >24; conditions: in vivo
[37] = Protein binding in mouse plasma assessed as bound fraction by LC-MS analysis based ultracentrifugation assay; format: ADME, cell-free; conditions: read-out: PPB (converted)
[38] = molecular target: Cytochrome P450 3A4 (Homo sapiens, UniProt P08684); experiment: Inhibition of CYP3A4 in human liver microsomes using isoform-specific probe substrates in presence of NADPH-generating system by LC-MS analysis; format: ADME
[39] = Apparent half-life in Sprague-Dawley rat at 2 mg/kg, iv administered as infusion for 10 mins by LC-MS analysis; format: ADME, organism-based; conditions: in vivo, read-out: t1/2(app) (converted)
[40] = AUC (0 to infinity) in Sprague-Dawley rat at 2 mg/kg, iv administered as infusion for 10 mins by LC-MS analysis; format: ADME, organism-based; parameters: route intravenous, dose 2 mg/kg, time 10 min; conditions: in vivo
[41] = Unbound clearance in Sprague-Dawley rat at 2 mg/kg, iv administered as infusion for 10 mins by LC-MS analysis; format: ADME, organism-based; conditions: in vivo
[42] = Volume of distribution at steady state in Sprague-Dawley rat at 2 mg/kg, iv administered as infusion for 10 mins by LC-MS analysis; format: ADME, organism-based; conditions: in vivo
[43] = Unbound volume of distribution at steady state in Sprague-Dawley rat at 2 mg/kg, iv administered as infusion for 10 mins by LC-MS analysis; format: ADME, organism-based; conditions: in vivo
[44] = Unbound Cmax in Sprague-Dawley rat at 24.4 mg/kg, po measured over 24 hrs by LC-MS analysis; format: ADME, organism-based; conditions: in vivo
[45] = AUC (0 to infinity) in Sprague-Dawley rat at 24.4 mg/kg, po measured over 24 hrs by LC-MS analysis; format: ADME, organism-based; parameters: route oral, dose 24.4 mg/kg, time >24; conditions: in vivo
[46] = Unbound AUC (0 to infinity) in Sprague-Dawley rat at 24.4 mg/kg, po measured over 24 hrs by LC-MS analysis; format: ADME, organism-based; conditions: in vivo
[47] = Oral bioavailability in Sprague-Dawley rat at 24.4 mg/kg measured over 24 hrs by LC-MS analysis; format: ADME, organism-based; conditions: in vivo
[48] = Solubility of compound in FeSSIF at pH 5.8 measured after 5 to 6 hrs by HPLC-UV based analysis; format: physicochemical; conditions: simulated gi fluid, time 5-6 hrs
[49] = Unbound AUC (0 to infinity) in Sprague-Dawley rat at 2 mg/kg, iv by LC-MS analysis; format: ADME, organism-based; conditions: in vivo
[50] = Protein binding in Sprague-Dawley rat plasma at 2 mg/kg, iv administered as infusion for 10 mins by LC-MS analysis; format: ADME, organism-based; conditions: read-out: PPB (converted)
[51] = in vivo; conditions: Sprague-Dawley, rat, po, 24.4 mg/kg

Sequence of Cytochrome P450 3A4 (P08684 whole entry, the tested form may be a part, canonical isoform): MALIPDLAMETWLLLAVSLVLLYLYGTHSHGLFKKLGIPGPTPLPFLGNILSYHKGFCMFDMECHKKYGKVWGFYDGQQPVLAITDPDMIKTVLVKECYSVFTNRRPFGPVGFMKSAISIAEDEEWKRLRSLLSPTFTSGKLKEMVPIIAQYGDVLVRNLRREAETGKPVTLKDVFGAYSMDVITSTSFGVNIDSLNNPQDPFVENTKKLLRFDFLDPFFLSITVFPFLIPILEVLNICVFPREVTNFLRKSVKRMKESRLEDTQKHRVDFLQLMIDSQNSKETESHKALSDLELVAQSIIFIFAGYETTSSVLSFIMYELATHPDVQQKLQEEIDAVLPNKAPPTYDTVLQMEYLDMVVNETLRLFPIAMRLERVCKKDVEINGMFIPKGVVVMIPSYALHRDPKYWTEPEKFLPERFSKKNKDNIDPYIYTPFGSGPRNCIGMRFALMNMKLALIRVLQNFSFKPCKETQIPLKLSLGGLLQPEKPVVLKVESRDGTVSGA

| Structure (SMILES) | pIC50 [1] | pIC50 [2] | pEC50 [3] | pIC50 [4] | logD [5] | solubility kinetic at 0.5 h [6] [µg/mL] | fraction unbound [7] | fraction unbound [8] | Intrinsic clearance in rat liver microsomes (uL/min/mg protein) [9] [µL/min] | intrinsic clearance [10] [µL/min] | solubility [11] [µg/mL] | Tmax [13] [h] | t1/2(app) [14] [h] | Cmax [15] [µM] | AUC [16] [µM·h] | fCmax [17] [µM] | fAUC [18] [µM·h] | half-life [19] [h] | fraction unbound at 24 h [32] | solubility [35] [µg/mL] | other results |
| --- | --- | --- | --- | --- | --- | --- | --- | --- | --- | --- | --- | --- | --- | --- | --- | --- | --- | --- | --- | --- | --- |
| Cc1cc(NC2CCc3ccc(Br)cc3C2)n2nc(C(C)(F)F)nc2n1 (stereo in doubt) | 8.34 | 7.92 | 9.41 | < 4.00 | 4 | 1.6 (≈ 3.79 µM) | 0.037 | 0.028 | 39 | 32 | 52 (≈ 123 µM) | 1 | 2.1 | 4.5 | 16.7 | 0.13 | 0.47 | 2 | 0.028 | 8.3 (≈ 19.7 µM) | solubility [12]: 39 µg/mL (≈ 92.4 µM); half-life at 10 min [20]: 6.1 h; AUC(0-inf) at 10 min [21]: 2 µM·h; CL free [22]: 800 mL/min/kg; Vdss [23]: 8.7 L/kg; fVdss [24]: 311 L/kg; Cmax [25]: 2.7 µM; fCmax [26]: 0.07 µM; AUC(0-inf) [27]: 28.1 µM·h; fAUC [28]: 0.79 µM·h; bioavailability [29]: 86%; fAUC [30]: 0.05 µM·h; pEC50 [31]: 5.13; fraction unbound at 10 min [33]: 0.028; Tmax at 24 h [34]: 3.3 h |
| Cc1cc(NC2CCc3cc(Br)ccc3C2)n2nc(C(C)(F)F)nc2n1 (stereo in doubt) | 8.34 | 7.62 | 8.59 | < 4.00 | 4 | 3.1 (≈ 7.34 µM) | 0.01 | 0.003 | 11 | 26 | 189 (≈ 448 µM) | 1 | 2.1 | 8.6 | 51 | 0.07 | 0.41 | 2 | 0.008 | 13 (≈ 30.8 µM) | Cmax [36]: 37 µM; fraction unbound [37]: 0.008; IC50 [38]: > 20000 nM; half-life [39]: 6.2 h; AUC(0-inf) [40]: 30 µM·h; CL free [41]: 933 mL/min/kg; Vdss [42]: 1.1 L/kg; fVdss [43]: 367 L/kg; fCmax [44]: 0.11 µM; AUC(0-inf) [45]: 318 µM·h; fAUC [46]: 0.95 µM·h; bioavailability [47]: 86%; solubility [48]: 211 µg/mL (≈ 500 µM); fAUC [49]: 0.09 µM·h; fraction unbound at 10 min [50]: 0.003; Tmax at 24 h [51]: 2.5 h |
